Source: patent US11597703B2, “Caspase inhibitors and methods of use thereof” (Histogen Inc., priority 2019, dated 2023)

What was measured:
Jurkat cells = assay: Prevention of Fas-induced apoptosis in Jurkat cells (WST-8); assay type: cell-based; details: Homo sapiens, 10 micromolar, read-out: % Prevention of Fas - induced Jurkat cell apoptosis at 10 micromolar
Caspase-3 = biological target: T1, Caspase-3 (Homo sapiens, UniProt P42574); assay: Caspase-3 enzymatic inhibition assay, IC50; assay type: biochemical; details: read-out: Caspase 3 enzyme inhibition IC50
T1 construct: purchased Enzo Biosciences
T1 sequence (P42574 29-175 limits assumed): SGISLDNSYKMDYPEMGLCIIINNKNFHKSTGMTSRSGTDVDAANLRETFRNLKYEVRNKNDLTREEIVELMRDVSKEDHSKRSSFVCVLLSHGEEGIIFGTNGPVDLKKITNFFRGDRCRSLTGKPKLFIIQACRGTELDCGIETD
T1 sequence (P42574 176-277 limits assumed): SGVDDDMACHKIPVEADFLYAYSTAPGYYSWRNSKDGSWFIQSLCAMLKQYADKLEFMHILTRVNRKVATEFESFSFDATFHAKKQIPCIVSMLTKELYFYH
Outline: (§1)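 Human caspase-3/-6/-7, commercial enzyme; run per manufacturer's instructions; IC50 from enzymatic activity.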

Caspase 6 = biological target: T2, Caspase 6 (Homo sapiens, UniProt P55212); assay: Caspase 6 enzymatic inhibition assay, IC50; assay type: biochemical; details: read-out: Caspase 6 enzyme inhibition IC50
T2 construct: purchased Enzo Biosciences
T2 sequence (P55212 24-179 limits assumed): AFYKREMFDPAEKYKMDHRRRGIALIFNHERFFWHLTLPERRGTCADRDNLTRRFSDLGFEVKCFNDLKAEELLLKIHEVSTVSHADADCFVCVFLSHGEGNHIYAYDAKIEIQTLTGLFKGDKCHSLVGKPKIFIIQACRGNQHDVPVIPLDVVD
T2 sequence (P55212 194-293 limits assumed): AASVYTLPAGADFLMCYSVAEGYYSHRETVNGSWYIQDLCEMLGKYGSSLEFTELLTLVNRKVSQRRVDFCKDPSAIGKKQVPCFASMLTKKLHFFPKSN
Outline: as §1

Caspase 7 = biological target: T3, Caspase 7 (Homo sapiens, UniProt P55210); assay: Caspase 7 enzymatic inhibition assay, IC50; assay type: biochemical; details: read-out: Caspase 7 enzyme inhibition IC50
T3 construct: purchased Enzo Biosciences
T3 sequence (P55210 24-198 limits assumed): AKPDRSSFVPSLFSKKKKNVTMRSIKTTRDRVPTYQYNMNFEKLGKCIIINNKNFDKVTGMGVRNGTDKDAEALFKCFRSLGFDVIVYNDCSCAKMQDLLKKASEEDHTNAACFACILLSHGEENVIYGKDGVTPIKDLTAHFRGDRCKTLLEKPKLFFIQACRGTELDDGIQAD
T3 sequence (P55210 207-303 limits assumed): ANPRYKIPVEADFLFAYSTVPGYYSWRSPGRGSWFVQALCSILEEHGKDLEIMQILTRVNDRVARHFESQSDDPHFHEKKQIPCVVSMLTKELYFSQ
Outline: as §1

Caspase-1 = biological target: T4, Caspase-1 (Homo sapiens, UniProt P29466); assay: Caspase-1 enzyme inhibition assay (Ac-YVAD-pNA substrate), IC50; assay type: biochemical
T4 construct: purchased Enzo Biosciences
T4 sequence (P29466 120-297 limits assumed): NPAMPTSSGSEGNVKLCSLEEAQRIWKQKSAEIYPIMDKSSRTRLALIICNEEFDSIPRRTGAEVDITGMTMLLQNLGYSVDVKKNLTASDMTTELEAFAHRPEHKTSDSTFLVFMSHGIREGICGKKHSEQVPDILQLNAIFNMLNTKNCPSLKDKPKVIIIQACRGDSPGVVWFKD
T4 sequence (P29466 317-404 limits assumed): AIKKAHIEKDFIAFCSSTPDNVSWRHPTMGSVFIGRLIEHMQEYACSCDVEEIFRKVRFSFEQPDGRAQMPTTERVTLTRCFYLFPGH
Outline: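 Buffer was 50 mM HEPES pH 7.4, 100 mM NaCl, 0.1% CHAPS, 1 mM EDTA, 10% glycerol and 10 mM DTT. Caspase-1 was reacted with 200 μM Ac-YVAD-pNA (final). Release of p-nitroaniline was followed continuously at 405 nm, and rates were taken from the linear slope (ε 10,500 M-1 cm-1).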

IL 18 = assay: Mouse in vivo model of peritoneal inflammation (LPS/ATP), IL 18 in peritoneal lavage fluid; set-up: species or system Mice; details: mouse peritonitis, IP injection
Experimental: Compounds of the present invention were tested in a mouse in vivo model of peritoneal inflammation (peritonitis). Mice were treated with intraperotonial injection of bacterial endotoxin, (LPS). After 1 hour, test compounds were administered by IP injection. After an additional hour, adenosine triphosphate (ATP) was administered by IP injection to further induce the production of the inflammatory cytokines, IL-1β and IL 18. After 0.5 hours, peritoneal lavage fluid was collected and analyzed for IL-1β and IL 18. An inhibitor of the NLRP 3 inflammasome, MCC950, was administered by IP injection and included as a reference test compound. […] IL18 levels were determined by a commercially available ELISA kit following the manufacture's instructions FIG. 3.

C[C@H](NC(=O)C(=O)Nc1c(F)cccc1F)C(=O)N[C@@H](CCC(=O)O)C(=O)COc1c(F)c(F)cc(F)c1F [Example 6, (S)-4-((S)-2-(2-((2,6-Difluorophenyl)amino)-2-oxoacetamido)propanamido)-5-oxo-6-(2,3,5,6-tetrafluorophenoxy)hexanoic acid]
inhibition at 10 µM (Jurkat cells): ≤ 10% | IC50 (Caspase-3): ≥ 1 µM | IC50 (Caspase 6): ≥ 1 µM | IC50 (Caspase 7): ≥ 1 µM | IC50 (Caspase-1): ≤ 0.01 µM | inhibition of the in vivo production of IL 18 (IL 18): statistically significant inhibition
